In patent publication US20110070232A1, “Combination Therapy with an Antitumor Alkaloid” (Pharma Mar, S.A., priority 2008, published 2011):
Where two headings read alike, the source gives them in different places.

How the values were obtained:
Type in all cases: in vivo, mice
SK-OV-3 tumors = settings: for % Inhibition: PM00104 0.9 mg/kg/day, single agents and combination, r5-r14 = day 14,17,21,24,29,32,36,43,50,57
From the text: (§1) Female athymic nude mice (Harlan Sprague Dawley, Madison, Wis.) were utilized for all experiments. Animals were housed in ventilated rack caging with food and water ad libitum. The mice were acclimated for at least 5 days prior to tumor implantation with tumor fragments.
The tumor model used in these studies was SK-OV-3 cell line, which was obtained from the ATCC (Manassas, Va.).
SK-OV-3 fragments were removed from donor animals and tissue was debrided of membrane and any hemorrhagic and necrotic areas and 3-4 mm^3 fragments, from in vivo passage 2, were implanted SC on the right flank of each animal, using a 13G trochar. Bacterial culture was taken on cells used to implant the study.
Treatments were initiated on DPI 14.
(§2) Tumor size measurements were recorded twice weekly from the treatment initiation until the termination of the study.
(§3) Mean, standard deviation and standard error of the mean were determined for tumor volume for all animal groups at all assessments. Student's t test was performed on tumor volumes at each measurement day, including at the end of the study, to determine whether there were any statistically significant differences between combination treatment groups and single monotherapy treatment groups.

NCI-H460 tumors = settings: G2 PM00104 0.9 mg/kg/day IV
From the text: (§4) Female athymic nude mice (Harlan Sprague Dawley, Madison, Wis.) were utilized for all experiments. Animals were housed in ventilated rack caging with food and water ad libitum. The mice were acclimated for at least 5 days prior to tumor implantation.
The tumor model used in this study was NCI-H460 cell line which is a human lung cell line obtained from the ATCC (Manassas, Va.). […] Cells from in vitro passage 16 were those implanted SC into study mice.
Treatments were initiated on DPI 8.
(§5) Tumor size measurements were recorded 2-3 times/week from the treatment initiation until the termination of the study.
as §3

CaLu-6 tumors = settings: G2 PM00104 0.9 mg/kg/day IV
From the text: as §4
The tumor model used in this study was CaLu-6 cell line which is a human lung cell line obtained from the ATCC (Manassas, Va.). […] Cells from in vitro passage 10 were those implanted SC into study mice.
Treatments were initiated on DPI 9.
as §5, §3

H-Meso-1 tumors = settings: G2 PM00104 0.9 mg/kg/day IV
Procedure: as §4
The tumor model used in this study was H-Meso-1 cell line which is a human mesothelioma cell line obtained from the DTP, DCTD tumor repository. […] Cells were implanted SC into study mice using a 1 ml syringe with a 13G trocar: 5×10^6 cells/mouse in 0.2 ml 50% Matrigel/50% RPMI medium of H-Meso-1 without serum or antibiotics. Bacterial culture was taken on cells used to implant the study.
Treatments were initiated on DPI 6.
as §5, §3

MRI-H-254 tumors = system: MRI-H-254 tumors
Procedure: as §1
Treatments were initiated on DPI 20.
as §2, §3

[1] = PM00104 0.90 mg/kg/day IV and/or Bevacizumab 5 mg/kg/day IP
[2] = PM00104 0.90 IV, docetaxel 16 IP, oxaliplatin 8 IP mg/kg/day (G2, G3, G5, G7, G9), DPI 20, 27, 34

## COc1c(C)cc2c(c1O)[C@@H]1[C@@H]3Cc4c(OC(C)=O)c(C)c5c(c4[C@H](CNC(=O)/C=C/c4cccc(C(F)(F)F)c4)N3[C@@H](O)[C@H](C2)N1C)OCO5 [PM00104]
SK-OV-3 tumors; [1]
  % T/C on day 14: 100.9%
  % T/C on day 17: 87.6%
  % T/C on day 21: 79.4%
  % T/C on day 24: 78.8%
  % T/C on day 29: 73.5%
  % T/C on day 32: 73.1%
  % T/C on day 36: 72.7%
  % T/C on day 43: 81.5%
  % T/C on day 50: 93.8%
  % T/C on day 57: 100.4%
SK-OV-3 tumors; bevacizumab 5 mg/kg/day
  % Inhibition: 27.3%
SK-OV-3 tumors; bevacizumab […]
  % Inhibition: 27.3%
NCI-H460 tumors
  % T/C on day 8: 101.5%
  % T/C on day 10: 86.5%
  % T/C on day 13: 48.5%
  % T/C on day 16: 49.0%
  % T/C on day 20: 47.2%
  % T/C on day 23: 63.0%
  % T/C on day 28: 61.9%
  % T/C on day 31: 81.7%
NCI-H460 tumors; day 8
  % Inhibition: −1.5%
NCI-H460 tumors; day 10
  % Inhibition: 13.5%
NCI-H460 tumors; day 13
  % Inhibition: 51.5%
NCI-H460 tumors; day 16
  % Inhibition: 51.0%
NCI-H460 tumors; day 20
  % Inhibition: 52.8%
NCI-H460 tumors; day 23
  % Inhibition: 37.0%
NCI-H460 tumors; day 28
  % Inhibition: 38.1%
NCI-H460 tumors; day 31
  % Inhibition: 18.3%
CaLu-6 tumors
  % T/C on day 9: 104.1%
  % T/C on day 13: 106.0%
  % T/C on day 16: 111.4%
  % T/C on day 20: 115.4%
  % T/C on day 27: 93.9%
  % T/C on day 30: 80.3%
  % T/C on day 34: 81.5%
  % T/C on day 42: 77.2%
CaLu-6 tumors; day 9
  % Inhibition: −4.1%
CaLu-6 tumors; day 13
  % Inhibition: −6.0%
CaLu-6 tumors; day 16
  % Inhibition: −11.4%
CaLu-6 tumors; day 20
  % Inhibition: −15.4%
CaLu-6 tumors; day 23
  % Inhibition: −16.8%
CaLu-6 tumors; day 27
  % Inhibition: 6.1%
CaLu-6 tumors; day 30
  % Inhibition: 19.7%
CaLu-6 tumors; day 34
  % Inhibition: 18.5%
CaLu-6 tumors; day 42
  % Inhibition: 22.8%
H-Meso-1 tumors
  % T/C on day 6: 98.5%
  % T/C on day 7: 80.3%
  % T/C on day 9: 69.7%
  % T/C on day 12: 63.3%
  % T/C on day 14: 62.9%
  % T/C on day 16: 62.1%
  % T/C on day 19: 55.1%
  % T/C on day 22: 51.6%
  % T/C on day 26: 56.0%
  % T/C on day 29: 64.9%
H-Meso-1 tumors; day 6
  % Inhibition: 1.5%
H-Meso-1 tumors; day 7
  % Inhibition: 19.7%
H-Meso-1 tumors; day 9
  % Inhibition: 30.3%
H-Meso-1 tumors; day 12
  % Inhibition: 36.7%
H-Meso-1 tumors; day 14
  % Inhibition: 37.1%
H-Meso-1 tumors; day 16
  % Inhibition: 37.9%
H-Meso-1 tumors; day 19
  % Inhibition: 44.9%
H-Meso-1 tumors; day 22
  % Inhibition: 48.4%
H-Meso-1 tumors; day 26
  % Inhibition: 44.0%
H-Meso-1 tumors; day 29
  % Inhibition: 35.0%
MRI-H-254 tumors; [2]
  % T/C on day 20: 100.2%
  % T/C on day 23: 109.3%
  % T/C on day 27: 71.6%
  % T/C on day 30: 65.4%
  % T/C on day 33: 54.2%
  % T/C on day 36: 50.0%
  % T/C on day 40: 36.1%
  % T/C on day 48: 26.9%
MRI-H-254 tumors; day 20, PM00104 0.9 and docetaxel 8 mg/kg/day
  % Inhibition: −0.2%
MRI-H-254 tumors; day 20, PM00104 0.9 and docetaxel 16 mg/kg/day
  % Inhibition: −0.2%
MRI-H-254 tumors; day 20, PM00104 0.9 and oxaliplatin 4 mg/kg/day
  % Inhibition: −0.2%
MRI-H-254 tumors; day 20, PM00104 0.9 and oxaliplatin 8 mg/kg/day
  % Inhibition: −0.2%
MRI-H-254 tumors; day 23, PM00104 0.9 and docetaxel 8 mg/kg/day
  % Inhibition: −9.3%
MRI-H-254 tumors; day 23, PM00104 0.9 and docetaxel 16 mg/kg/day
  % Inhibition: −9.3%
MRI-H-254 tumors; day 23, PM00104 0.9 and oxaliplatin 4 mg/kg/day
  % Inhibition: −9.3%
MRI-H-254 tumors; day 23, PM00104 0.9 and oxaliplatin 8 mg/kg/day
  % Inhibition: −9.3%
MRI-H-254 tumors; day 27, PM00104 0.9 and docetaxel 8 mg/kg/day
  % Inhibition: 28.4%
MRI-H-254 tumors; day 27, PM00104 0.9 and docetaxel 16 mg/kg/day
  % Inhibition: 28.4%
MRI-H-254 tumors; day 27, PM00104 0.9 and oxaliplatin 4 mg/kg/day
  % Inhibition: 28.4%
MRI-H-254 tumors; day 27, PM00104 0.9 and oxaliplatin 8 mg/kg/day
  % Inhibition: 28.4%
MRI-H-254 tumors; day 30, PM00104 0.9 and docetaxel 8 mg/kg/day
  % Inhibition: 34.6%
MRI-H-254 tumors; day 30, PM00104 0.9 and docetaxel 16 mg/kg/day
  % Inhibition: 34.6%
MRI-H-254 tumors; day 30, PM00104 0.9 and oxaliplatin 4 mg/kg/day
  % Inhibition: 34.6%
MRI-H-254 tumors; day 30, PM00104 0.9 and oxaliplatin 8 mg/kg/day
  % Inhibition: 34.6%
MRI-H-254 tumors; day 33, PM00104 0.9 and docetaxel 8 mg/kg/day
  % Inhibition: 45.8%
MRI-H-254 tumors; day 33, PM00104 0.9 and docetaxel 16 mg/kg/day
  % Inhibition: 45.8%
MRI-H-254 tumors; day 33, PM00104 0.9 and oxaliplatin 4 mg/kg/day
  % Inhibition: 45.8%
MRI-H-254 tumors; day 33, PM00104 0.9 and oxaliplatin 8 mg/kg/day
  % Inhibition: 45.8%
MRI-H-254 tumors; day 36, PM00104 0.9 and docetaxel 8 mg/kg/day
  % Inhibition: 50.0%
MRI-H-254 tumors; day 36, PM00104 0.9 and docetaxel 16 mg/kg/day
  % Inhibition: 50.0%
MRI-H-254 tumors; day 36, PM00104 0.9 and oxaliplatin 4 mg/kg/day
  % Inhibition: 50.0%
MRI-H-254 tumors; day 36, PM00104 0.9 and oxaliplatin 8 mg/kg/day
  % Inhibition: 50.0%
MRI-H-254 tumors; day 40, PM00104 0.9 and docetaxel 8 mg/kg/day
  % Inhibition: 63.9%
MRI-H-254 tumors; day 40, PM00104 0.9 and docetaxel 16 mg/kg/day
  % Inhibition: 63.9%
MRI-H-254 tumors; day 40, PM00104 0.9 and oxaliplatin 4 mg/kg/day
  % Inhibition: 63.9%
MRI-H-254 tumors; day 40, PM00104 0.9 and oxaliplatin 8 mg/kg/day
  % Inhibition: 63.9%
MRI-H-254 tumors; day 48, PM00104 0.9 and docetaxel 8 mg/kg/day
  % Inhibition: 73.1%
MRI-H-254 tumors; day 48, PM00104 0.9 and docetaxel 16 mg/kg/day
  % Inhibition: 73.1%
MRI-H-254 tumors; day 48, PM00104 0.9 and oxaliplatin 4 mg/kg/day
  % Inhibition: 73.1%
MRI-H-254 tumors; day 48, PM00104 0.9 and oxaliplatin 8 mg/kg/day
  % Inhibition: 73.1%
